Our source for the Ki values is US12492181B2, “Gem-disubstituted piperidine melanocortin subtype-2 receptor (MC2R) antagonists and uses thereof” (Crinetics Pharmaceuticals, Inc., priority 2019, dated 2025).

The target in the assay is T1, hMC2 receptor (crude hMC2R membranes from CRE-bla-CHO-K1 cells stably expressing hMC2 receptor and hMRAP accessory protein) (Homo sapiens, UniProt Q01718).
T1 construct: crude membrane fractions
T1 sequence (Q01718 whole entry): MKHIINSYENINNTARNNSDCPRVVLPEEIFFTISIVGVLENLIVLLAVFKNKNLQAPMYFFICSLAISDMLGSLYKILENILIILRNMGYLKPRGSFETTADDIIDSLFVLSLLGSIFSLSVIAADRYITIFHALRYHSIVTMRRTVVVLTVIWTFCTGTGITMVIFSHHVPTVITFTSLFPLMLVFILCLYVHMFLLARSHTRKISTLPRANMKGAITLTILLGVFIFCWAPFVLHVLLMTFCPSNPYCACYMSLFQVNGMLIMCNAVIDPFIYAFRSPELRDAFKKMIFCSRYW
T1 sequence (Q8TCY5 whole entry partner): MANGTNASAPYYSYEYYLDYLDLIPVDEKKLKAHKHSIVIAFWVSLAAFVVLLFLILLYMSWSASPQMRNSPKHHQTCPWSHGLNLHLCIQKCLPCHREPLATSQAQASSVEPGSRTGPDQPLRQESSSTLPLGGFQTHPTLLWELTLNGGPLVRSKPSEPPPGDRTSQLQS
Nature of the assay: hMC2 membrane binding assay ([125I]ACTH (1-39) Tyr23, SPA). As to conditions: displacement of 0.2 nM [125I]ACTH (1-39) Tyr23 from hMC2R membranes, 1.5 hours at room temperature; read-out: MC2R binding potency. As to the method:
Crude membrane fractions are prepared from CRE-bla-CHO-K1 cells stably expressing hMC2 receptor and hMRAP accessory protein (Thermo Fisher). The cells are grown to 85-100% confluence on standard tissue culture dishes in GlutaMax DMEM growth media (Gibco) with following additives: 10% dialyzed FBS (Gemini), 0.1 mM NEAA (Gibco), 25 mM HEPES (Gibco), 5 μg/mL blasticidin (Goldbio), 100 μg/mL zeocin (Invitrogen), 600 μg/mL hygromycin (Goldbio). To prepare membranes, cells are scraped and collected in 1× Dulbecco's phosphate buffered saline (Corning) and then pelleted at 1000 RPM's. The cell pellet is reconstituted in membrane preparation buffer (20 mM HEPES, 6 mM MgCl2 and 1 mM EGTA, protease inhibitor tablets (Pierce) adjusted to pH 7.4), homogenized using a dounce homogenizer, and the resulting membrane fraction is pelleted by centrifugation at 12,000 RPM's. The membrane pellet is resuspended in membrane preparation buffer, snap freezed and stored at −80° C. for later use.
Binding Assay for hMC2 Antagonists Protocol:
The hMC2 membrane binding assay utilizes the following components: radiolabel [^125I]ACTH (1-39) Tyr23 (PerkinElmer), wheatgerm agglutinin coated PVT SPA beads (PerkinElmer), crude hMC2R membranes, and compounds. Briefly hMC2R membranes are incubated with SPA beads in binding assay buffer (50 mM HEPES, 5 mM MgCl2, 1 mM CaCl2), 0.20% BSA, protease inhibitor tablets (Pierce) adjusted to pH7.4) prior to assay initiation. […] Assay plates are read using a Top Count NXT and Ki values for compounds are determined using a GraphPad Prism 6 non-linear regression analysis.
As for `CCOc1ccccc1-c1ccc(C2(C(=O)NCCNC)CCN(c3ccc(C(F)(F)F)cc3Cl)CC2)cn1` [Compound 1-230, 1-[2-chloro-4-(trifluoromethyl)phenyl]-4-[6-(2-ethoxyphenyl)pyridin-3-yl]-N-[2-(methylamino)ethyl]piperidine-4-carboxamide], the Ki is less than 10 nM.
With `CCOc1ncccc1-c1ccc(C2(C(=O)N[C@H]3CCN(C)C3)CCN(c3ncc(C(F)(F)F)cc3C#N)CC2)cn1` [Compound 1-42, 1-[3-cyano-5-(trifluoromethyl)pyridin-2-yl]-4-{2′-ethoxy-[2,3′-bipyridin]-5-yl}-N-[(3S)-1-methylpyrrolidin-3-yl]piperidine-4-carboxamide] the figure was less than 10 nM.
Next, `CN1C[C@@H](F)C[C@H]1CNC(=O)C1(c2ccc(-c3cccn3C)nc2)CCN(c2ccc(C(F)(F)F)cc2C#N)CC1` [Compound 1-277, 1-[2-cyano-4-(trifluoromethyl)phenyl]-N-{[(2S,4S)-4-fluoro-1-methylpyrrolidin-2-yl]methyl}-4-[6-(1-methyl-1H-pyrrol-2-yl)pyridin-3-yl]piperidine-4-carboxamide]: less than 10 nM.
In the case of `CN1CC[C@@H](NC(=O)C2(c3ccc(-c4ccccc4CO)nc3)CCN(c3ccc(C(F)(F)F)cc3C#N)CC2)C1` [Compound 1-55, 1-[2-cyano-4-(trifluoromethyl)phenyl]-4-{6-[2-(hydroxymethyl)phenyl]pyridin-3-yl}-N-[(3R)-1-methylpyrrolidin-3-yl]piperidine-4-carboxamide], the Ki is less than 10 nM.
Next, `COc1ccccc1-c1ncc(C2(C(=O)NCCN(C)C)CCN(c3ccc(C(F)(F)F)cc3C#N)CC2)cc1F` [Compound 1-198, 1-[2-cyano-4-(trifluoromethyl)phenyl]-N-[2-(dimethylamino)ethyl]-4-[5-fluoro-6-(2-methoxyphenyl)pyridin-3-yl]piperidine-4-carboxamide]: less than 10 nM; `CCOc1ncccc1-c1ccc(C2(NCCNC)CCN(c3ccc(C(F)(F)F)cc3C#N)CC2)cn1` [Compound 2-15, 2-(4-{2′-ethoxy-[2,3′-bipyridin]-5-yl}-4-{[2-(methylamino)ethyl]amino}piperidin-1-yl)-5-(trifluoromethyl)benzonitrile]: 10 to 100 nM.
Consider `CCOc1ncccc1-c1ccc(C2(C(=O)NCCNC)CCN(c3ccc(C(F)(F)F)cc3C#N)CC2)cc1` [Compound 1-7, 1-[2-cyano-4-(trifluoromethyl)phenyl]-4-[4-(2-ethoxypyridin-3-yl)phenyl]-N-[2-(methylamino)ethyl]piperidine-4-carboxamide], for which the Ki was less than 10 nM.
On to `CCOc1ccccc1-c1ncc(C2(C(=O)NCCN(C)C)CCN(c3ccc(C(F)(F)F)cc3Cl)CC2)cc1F` [Compound 1-291, 1-[2-chloro-4-(trifluoromethyl)phenyl]-N-[2-(dimethylamino)ethyl]-4-[6-(2-ethoxyphenyl)-5-fluoropyridin-3-yl]piperidine-4-carboxamide], for which the Ki was less than 10 nM.
Turning to `Cn1cccc1-c1ccc(C2(C(=O)N[C@H]3CCNC3)CCN(c3ccc(C(F)(F)F)cc3C#N)CC2)cn1` [Compound 1-152, 1-[2-cyano-4-(trifluoromethyl)phenyl]-4-[6-(1-methyl-1H-pyrrol-2-yl)pyridin-3-yl]-N-[(3S)-pyrrolidin-3-yl]piperidine-4-carboxamide], the Ki is less than 10 nM.
Next, `CNC[C@H](C)NC(=O)C1(c2ccc(-c3cccn3C)nc2)CCN(c2ccc(C(F)(F)F)cc2C#N)CC1` [Compound 1-316, 1-[2-cyano-4-(trifluoromethyl)phenyl]-4-[6-(1-methyl-1H-pyrrol-2-yl)pyridin-3-yl]-N-[(2S)-1-(methylamino)propan-2-yl]piperidine-4-carboxamide]: less than 10 nM; `CCOc1ncccc1-c1ncc(C2(C(=O)N[C@@H](C)CNC)CCN(c3ccc(C(F)(F)F)cc3C#N)CC2)cc1F` [Compound 1-320, 1-[2-cyano-4-(trifluoromethyl)phenyl]-4-{2′-ethoxy-3-fluoro-[2,3′-bipyridin]-5-yl}-N-[(2S)-1-(methylamino)propan-2-yl]piperidine-4-carboxamide]: less than 10 nM; `CN1CCC[C@H]1CNC(=O)C1(c2ccc(-c3cccn3C)nc2)CCN(c2ccc(C(F)(F)F)cc2C#N)CC1` [Compound 1-229, 1-[2-cyano-4-(trifluoromethyl)phenyl]-4-[6-(1-methyl-1H-pyrrol-2-yl)pyridin-3-yl]-N-{[(2S)-1-methylpyrrolidin-2-yl]methyl}piperidine-4-carboxamide]: 10 to 100 nM.
With `COc1ncccc1-c1ncc(C2(C(=O)N[C@H]3CCN(C)C3)CCN(c3ccc(C(F)(F)F)nc3C#N)CC2)cc1F` [Compound 1-133, 1-[2-cyano-6-(trifluoromethyl)pyridin-3-yl]-4-{3-fluoro-2′-methoxy-[2,3′-bipyridin]-5-yl}-N-[(3S)-1-methylpyrrolidin-3-yl]piperidine-4-carboxamide] the figure was less than 10 nM; with `Cn1cccc1-c1ccc(C2(C(=O)N[C@@H]3C[C@@H]3N)CCN(c3ccc(C(F)(F)F)cc3C#N)CC2)cn1` (racemic) [Compound 1-258, rac-N-[(1R,2S)-2-aminocyclopropyl]-1-[2-cyano-4-(trifluoromethyl)phenyl]-4-[6-(1-methyl-1H-pyrrol-2-yl)pyridin-3-yl]piperidine-4-carboxamide], less than 10 nM; with `CNCCNC(=O)C1(c2ccc(-c3ccccc3OC)nc2)CCN(c2ccc(C(F)(F)F)cc2C#N)CC1` [Compound 1-214, 1-[2-cyano-4-(trifluoromethyl)phenyl]-4-[6-(2-methoxyphenyl)pyridin-3-yl]-N-[2-(methylamino)ethyl]piperidine-4-carboxamide], less than 10 nM.
With `CCOc1ncccc1-c1ccc(C2(NC(=O)[C@H]3CCN(C)C3)CCN(c3ccc(Cl)cc3C#N)CC2)cn1` [Compound 2-39, (3S)—N-[1-(4-chloro-2-cyanophenyl)-4-{2′-ethoxy-[2,3′-bipyridin]-5-yl}piperidin-4-yl]-1-methylpyrrolidine-3-carboxamide] the figure was less than 10 nM; with `CN1CC[C@@H](NC(=O)C2(c3ccc(-c4ccc(C#N)n4C)nc3)CCN(c3ccc(C(F)(F)F)cc3C#N)CC2)C1` [Compound 1-153, 4-[6-(5-cyano-1-methyl-1H-pyrrol-2-yl)pyridin-3-yl]-1-[2-cyano-4-(trifluoromethyl)phenyl]-N-[(3R)-1-methylpyrrolidin-3-yl]piperidine-4-carboxamide], 10 to 100 nM; with `CCOc1ncccc1-c1ncc(C2(C(=O)N[C@@H]3CCN(C)C3)CCN(c3ccc(C(F)(F)F)cc3C#N)CC2)cn1` [Compound 1-107, 1-[2-cyano-4-(trifluoromethyl)phenyl]-4-[2-(2-ethoxypyridin-3-yl)pyrimidin-5-yl]-N-[(3R)-1-methylpyrrolidin-3-yl]piperidine-4-carboxamide], less than 10 nM.
Take `COc1ccccc1-c1ncc(C2(NC(=O)CCN(C)C)CCN(c3ccc(C(F)(F)F)cc3C#N)CC2)cc1F` [Compound 2-62, N-{1-[2-cyano-4-(trifluoromethyl)phenyl]-4-[5-fluoro-6-(2-methoxyphenyl)pyridin-3-yl]piperidin-4-yl}-3-(dimethylamino)propanamide]: the Ki was less than 10 nM.
With `CCOc1ncccc1-c1ncc(C2(C(=O)N[C@@H](C)CNC)CCN(c3ccc(Cl)cc3C#N)CC2)cc1F` [Compound 1-323, 1-(4-chloro-2-cyanophenyl)-4-{2′-ethoxy-3-fluoro-[2,3′-bipyridin]-5-yl}-N-[(2S)-1-(methylamino)propan-2-yl]piperidine-4-carboxamide] the figure was less than 10 nM; with `CNCCNC(=O)C1(c2ccc(-c3cccn3C)nc2)CCN(c2ccc(C(F)(F)F)cc2Cl)CC1` [Compound 1-283, 1-[2-chloro-4-(trifluoromethyl)phenyl]-4-[6-(1-methyl-1H-pyrrol-2-yl)pyridin-3-yl]-N-[2-(methylamino)ethyl]piperidine-4-carboxamide], less than 10 nM.
With “1-{1-[2-cyano-4-(trifluoromethyl)phenyl]-4-[6-(1-methyl-1H-pyrrol-2-yl)pyridin-3-yl]piperidin-4-yl}-3-[(3R)-1-methylpyrrolidin-3-yl]urea [Compound 2-48]” the figure was less than 10 nM.
With `CCOc1ccccc1-c1ccc(C2(C(=O)NCCN(C)C)CCN(c3ccc(C(F)(F)F)cc3F)CC2)cn1` [Compound 1-226, N-[2-(dimethylamino)ethyl]-4-[6-(2-ethoxyphenyl)pyridin-3-yl]-1-[2-fluoro-4-(trifluoromethyl)phenyl]piperidine-4-carboxamide] the figure was less than 10 nM.
For `COc1ccccc1-c1ccc(C2(C(=O)NC[C@H]3CCN3C)CCN(c3ccc(C(F)(F)F)cc3C#N)CC2)cn1` [Compound 1-244, 1-[2-cyano-4-(trifluoromethyl)phenyl]-4-[6-(2-methoxyphenyl)pyridin-3-yl]-N-{[(2R)-1-methylazetidin-2-yl]methyl}piperidine-4-carboxamide], the Ki is less than 10 nM.
